According to patent publication US20130178453A1, “Cannabinoid Agonists” (priority 2010, published 2013):
pEC50: −log10 of the molar value. Like-named read-outs stand apart in the source and are kept apart here.

Tests used:
hCB1 [1] = biological target: T1, hCB1 (Homo sapiens, UniProt P21554); assay: hCB1 cAMP agonist assay (HEK-293 cells); type: cell-based; conditions: cAMP agonist, HEK, 96-well
hCB1 [2] = biological target: T1, hCB1; assay: hCB1 radioligand binding assay ([3H]-CP 55,940 displacement); conditions: HEK membranes
From the text: (§1) cDNA expression clones for human CB 1 (hCB1, Genbank Accession No. AY225225) and human CB2 (hCB2, Genbank Accession No. AY242132) expressed in vector pcDNA3.1+ were purchased from UMR cDNA Resource Center, Rolla, Mo. (Clone ID CNR01L000 for hCB1; CNR0200000 for hCB2).
Stable, HEK-293-derived cell lines that recombinantly express hCB1 or hCB2 were established. In brief, the clone hCB1 (CNR1L) or hCB2 (CNR2) was transfected into human embryonic kidney cells (HEK-293) using Lipofectamine 2000 (Gibco, Cat#11668-019) according to the manufacturer's protocol. Transfected clones were isolated by single colony purification and clones were screened for receptor expression using a whole cell, ^3H—CP 55,940 radioligand binding assay. HEK-293 stable cells were maintained in Dulbecco's modified Eagles medium (DMEM) containing 10% fetal bovine serum, 2 mM L-glutamine and 0.5 mg/mL G-418.
(§2) Membranes were isolated from transfected cells as follows. Monolayers of cultured cells were washed twice with phosphate-buffered saline (PBS). Cells were scraped into 20 mM HEPES, pH 7.4, 10 mM EDTA containing complete cocktail protease inhibitors (Roche, Catalog #11 697 498 001), and were homogenized by an electric-powered mechanical probe homogenizer (Omni GLH; probe G7-195S) for 40 seconds at 7000 rpm. Homogenates were centrifuged 10 minutes at 1000×g at 4° C. The supernatant was collected and was centrifuged for 1 hour at 40,000×g. The supernatant was then decanted and the resulting pellet was re-suspended in 20 mM HEPES, pH 7.4, 5 mM MgCl2, 1 mM EDTA, 10% sucrose with complete cocktail protease inhibitors. Protein concentration of membrane suspensions were measured by Bradford Protein Assay using bovine serum albumin as the standard (BioRad catalog #500-0006). Protein concentrations of membrane suspensions were adjusted with the final buffer in the range of 5 to 10 mg/mL and were stored at −80° C. until further use.
Radioligand binding assays were performed by incubating membranes (2-10 μg protein) prepared from HEK-293 cells expressing recombinant human cannabinoid receptors, CB 1 or CB2, at room temperature with 0.5 nM cannabinoid receptor agonist, [^3H]-CP 55,940 (Perkin Elmer, catalog #NET 1051) in 0.2 mL of binding buffer (50 mM Tris-HCl, pH 7.5, 5 mM MgCl2, 2.5 mM EDTA) and 0.1% fatty acid free bovine serum albumin (Sigma Cat. #A0821) for 90 minutes. A rapid filtration technique using Millipore FB filter plates (Catalog #MADVNOB) and filtration apparatus (Millipore system Catalog MAVM0960R) with vacuum aspiration was used to harvest and rinse labeled membranes (8 times with 0.2 mL of chilled binding buffer). The radioactivity bound to the filters was counted with 0.05 mL of liquid scintillant (UltraGold MV, PerkinElmer catalog #6013159) in a scintillation counter (Perkin Elmer Microbeta instrument). Nonspecific binding was determined in the presence of unlabeled 1 μM CP 55,940 (Sigma Aldrich, catalog #C1112). Binding data were analyzed using GraphPad Prism (GraphPad Software, Inc. San Diego, Calif.).

hCB2 [3] = biological target: T2, hCB2 (Homo sapiens, UniProt P34972); assay: hCB2 radioligand binding assay ([3H]-CP 55,940 displacement); conditions: HEK membranes
T2 sequence (P34972 whole entry): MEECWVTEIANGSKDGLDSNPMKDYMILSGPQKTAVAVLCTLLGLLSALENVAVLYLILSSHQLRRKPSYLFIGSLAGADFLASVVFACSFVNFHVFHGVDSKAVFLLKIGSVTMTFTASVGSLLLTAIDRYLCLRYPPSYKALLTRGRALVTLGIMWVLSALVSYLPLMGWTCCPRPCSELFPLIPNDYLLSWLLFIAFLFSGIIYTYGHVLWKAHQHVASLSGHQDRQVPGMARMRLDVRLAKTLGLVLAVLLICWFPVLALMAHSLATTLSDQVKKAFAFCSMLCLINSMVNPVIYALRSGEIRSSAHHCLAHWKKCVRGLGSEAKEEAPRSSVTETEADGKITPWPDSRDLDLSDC
Experimental: as §1
as §2, with “Cells were scraped into 20 mM HEPES, pH 7.4, 10 mM EDTA containing complete cocktail protease inhibitors (Roche, Catalog #11 697 498 001), and were homogenized by an electric-powered mechanical probe homogenizer (Omni GLH; probe G7-195S) for 40 seconds at 7000 rpm.” left out
A rapid filtration technique using Millipore FB filter plates (Catalog #MADVNOB) and filtration apparatus (Millipore system Catalog MAVM0960R) with vacuum aspiration was used to harvest and rinse labeled membranes (8 times with 0.2 mL of chilled binding buffer). […] Binding data were analyzed using GraphPad Prism (GraphPad Software, Inc. San Diego, Calif.).

hCB2 [4] = biological target: T2, hCB2; assay: hCB2 cAMP agonist assay (HEK-293 cells); type: cell-based; conditions: for EC50: cAMP agonist, HEK, 96-well, read-out: hCB2 EC50 (cAMP ag, nM, HEK (96-well))
Experimental: as §1
cAMP assays were performed in HEK-293 cells stably expressing human CB 1 or CB2 receptors. […] Cells suspensions were centrifuged and the cells were washed once with PBS, were centrifuged again, and the cells were resuspended in HBSS (Hank's Balanced Salt Solution, Cellgro, Cat #21-022-CV) solution containing 10 mM HEPES and 0.1% fatty acid free BSA (Sigma, Cat #A0281). Cell suspensions were prepared at 1,500,000 cells per mL. Stock solutions of test substances (10 mM) in DMSO were diluted to 1 mM using 30% DMSO as diluent. Test substances of solutions (1 mM) were further diluted down to 3× of final assay concentrations in the above HBSS buffer containing 0.1% BSA in the presence of 90 uM forskolin (Sigma Cat#F6886). To perform the assay, 20 μL of cell suspension (1,500,000 cells/mL) were added to each well in 96 well plate and treated with 10 μL test substance solution diluted as described above. Cells and compounds were incubated at 37° C. for 30 minutes. Cells were lysed and cAMP concentration was measured using DiscoveRx-XS+ cAMP assay kit (DiscoveRx Corporation Ltd., Fremont, Calif., USA, Cat #90-0075-03), following the manufacturer's protocol. GraphPad Prism software was used to calculate EC50 values using sigmoidal dose response curve fitting. The maximal amount of cAMP produced by forskolin was defined as 100%.

hCB2 [5] = biological target: T2, hCB2; assay: hCB2 GTPγS agonist assay (HEK-293 membranes); type: biochemical; conditions: for EC50: GTPγS agonist, HEK membranes, read-out: hCB2 EC50 (GTPyS ag, nM, HEK)
Experimental: as §1
as §2, with “Cells were scraped into 20 mM HEPES, pH 7.4, 10 mM EDTA containing complete cocktail protease inhibitors (Roche, Catalog #11 697 498 001), and were homogenized by an electric-powered mechanical probe homogenizer (Omni GLH; probe G7-195S) for 40 seconds at 7000 rpm.” left out
^35S GTPγS binding assays were performed by incubating recombinant cell membranes prepared above (5 μg) in the presence of scintillation proximity assay beads (SPA beads, Catalog #RPNQ0252 GE Healthcare, Buckinghamshire, England) in GTPγS binding buffer [50 mM HEPES (pH 7.4), 100 mM NaCl, 5 mM MgCl2, 0.001% saponin (Sigma catalog #S4521)] supplemented with 20 uM GDP (Sigma catalog #G7127) in the presence or absence of test compound. The reaction was carried out in 96-well microplates with 0.1 nM [^35S]GTPγS (specific activity=1250 Ci/mmol; Perkin Elmer catalog #NEG030X250UC) in a final volume of 100 μL. After a 90 min room temperature incubation, the reaction was analyzed using a scintillation counter (Perkin Elmer Microbeta instrument). Binding data were analyzed using GraphPad Prism.

[6] = read-out: hCB1 IC50 (CP displ, nM, HEK)
[7] = read-out: hCB2 IC50 (CP displ, nM, HEK)

T1 sequence (P21554 whole entry): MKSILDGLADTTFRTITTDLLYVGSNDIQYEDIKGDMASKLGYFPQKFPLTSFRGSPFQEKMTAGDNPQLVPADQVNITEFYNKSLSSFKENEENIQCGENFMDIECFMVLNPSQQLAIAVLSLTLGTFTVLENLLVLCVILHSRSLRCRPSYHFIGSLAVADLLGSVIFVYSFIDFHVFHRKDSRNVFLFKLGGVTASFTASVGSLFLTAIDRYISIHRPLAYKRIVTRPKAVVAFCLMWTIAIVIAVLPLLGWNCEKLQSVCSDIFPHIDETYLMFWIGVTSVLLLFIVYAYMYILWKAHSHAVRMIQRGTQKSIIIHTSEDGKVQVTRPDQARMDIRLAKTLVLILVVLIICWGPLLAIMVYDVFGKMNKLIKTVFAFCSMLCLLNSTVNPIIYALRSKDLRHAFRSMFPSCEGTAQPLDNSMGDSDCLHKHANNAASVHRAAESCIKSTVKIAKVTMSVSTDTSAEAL

SMILES	hCB1 EC50 (cAMP ag, nM, HEK (96-well)) (hCB1 [1])	IC50 (hCB1 [2]; hCB1 IC50 (CP displ, nM, HEK))	IC50 (hCB2 [3]; hCB2 IC50 (CP displ, nM, HEK))	EC50 (hCB2 [4])	IC50 (hCB1 [2]; [6])	IC50 (hCB2 [3]; [7])	pEC50 (hCB2 [5])	pEC50 (hCB2 [4])	EC50 (hCB2 [5])
CCCn1c(C)c(C(=O)c2c(C)[nH]c3sccc23)c2ccccc21 [Compound I-6]	NS (“Not Significant,” which means less than 30% agonist activity when compared to the positive control)	> 10000 nM	> 10000 nM						
CCOC(=O)CCn1c(C)c(C(=O)c2cc3ccsc3n2CC)c2ccccc21 [Compound I-26]	NS (“Not Significant,” which means less than 30% agonist activity when compared to the positive control)	> 10000 nM	100 to 1000 nM	< 100 nM					
CCCn1c(C)c(C(=O)c2cc3scnc3[nH]2)c2ccccc21 [Compound I-30]	NS (“Not Significant,” which means less than 30% agonist activity when compared to the positive control)	> 10000 nM	1000 to 10000 nM						
CCn1c(C(=O)c2c(C)[nH]c3ccccc23)cc2ccsc21 [Compound I-38]	NS (“Not Significant,” which means less than 30% agonist activity when compared to the positive control)				> 10000 nM	1000 to 10000 nM			
CCn1c(C(=O)c2c[nH]c3ccncc23)cc2ccsc21 [Compound I-39]	NS (“Not Significant,” which means less than 30% agonist activity when compared to the positive control)				> 10000 nM	> 10000 nM			
CCn1c(C(=O)c2c[nH]c3cnccc23)cc2ccsc21 [Compound I-40]	NS (“Not Significant,” which means less than 30% agonist activity when compared to the positive control)				> 10000 nM	> 10000 nM			
CCCn1c(C(=O)c2c[nH]c3ccncc23)cc2ccsc21 [Compound I-44]	NS (“Not Significant,” which means less than 30% agonist activity when compared to the positive control)				> 10000 nM	> 10000 nM			
CCCn1c(C)c(C(=O)c2cc3ccsc3n2CC)c2ccccc21 [Compound I-54]		1000 to 10000 nM	< 100 nM				> 7.00	> 7.00	
CCCn1c(C)c(C(=O)c2cc3ccsc3n2C)c2ccccc21 [Compound I-55]		> 10000 nM	100 to 1000 nM				6.00 to 7.00	> 7.00	
CCCn1c(C)c(C(=O)c2cc3cc(C)n(CCC)c3s2)c2ccccc21 [Compound I-56]		1000 to 10000 nM	< 100 nM				> 7.00	> 7.00	
CCCn1c(C(=O)c2c(C)n(CCN3CCCCC3)c3ccccc23)cc2ccsc21 [Compound I-59]		100 to 1000 nM	< 100 nM				6.00 to 7.00	> 7.00	
CCCn1c(C(=O)c2c[nH]c3ccccc23)cc2ccsc21 [Compound I-64]		> 10000 nM	100 to 1000 nM	100 to 1000 nM					100 to 1000 nM
CCCn1c(C)c(C(=O)c2cc3ccsc3n2CC)c2c1CCC(C)(C)C2 [Compound I-65]		1000 to 10000 nM	< 100 nM	< 100 nM					< 100 nM
CCCn1c(C(=O)c2c(C)[nH]c3ccc(C)cc23)cc2ccsc21 [Compound I-68]	NS (“Not Significant,” which means less than 30% agonist activity when compared to the positive control)	> 10000 nM	1000 to 10000 nM						
CCCn1c(C(=O)c2c3c(n(CCN4CCOCC4)c2C)CCCC3)cc2ccsc21 [Compound I-79]		100 to 1000 nM	< 100 nM	< 100 nM					< 100 nM
Cc1c(C(=O)c2cc3ccsc3[nH]2)c2ccccc2n1CCN1CCOCC1 [Compound I-82]		1000 to 10000 nM	100 to 1000 nM				6.00 to 7.00	6.00 to 7.00	
CCCn1c(C)c(C(=O)c2cc3ccsc3n2CC)c2c1CCCC2 [Compound I-85]		1000 to 10000 nM	< 100 nM				> 7.00	> 7.00	
CCCn1c(C)c(C(=O)c2cc3ccsc3n2CC)c2c1CCCCC2 [Compound I-87]		1000 to 10000 nM	< 100 nM	< 100 nM					< 100 nM
